In patent US8937193B2, “Apogossypolone derivatives as anticancer agents” (Sanford-Burnham Medical Research Institute, priority 2009, dated 2015):
Read-outs that look alike come from different tables or passages of the source.

Experiments:
EC50 values of FIG. 3(B) = conditions: test not named
[1] = type: physicochemical
Source text: The chemical stability of solid compounds may be evaluated at room temperature. The stability of the compound was monitored using a combination of HPLC and LCMS.

[2] = not given; remark: listed apart in the source
Bcl-XL [3] = target: T1, Bcl-XL (Homo sapiens (Human), UniProt Q07817); experiment: 1D 1H-NMR binding assay against Bcl-XL; design: key: +++: Very Active; ++: Active; +: Mild; −: Weak; conditions: 4-point-rating scale, binding to Bcl-XL
Target sequence in this assay (Q07817 whole entry): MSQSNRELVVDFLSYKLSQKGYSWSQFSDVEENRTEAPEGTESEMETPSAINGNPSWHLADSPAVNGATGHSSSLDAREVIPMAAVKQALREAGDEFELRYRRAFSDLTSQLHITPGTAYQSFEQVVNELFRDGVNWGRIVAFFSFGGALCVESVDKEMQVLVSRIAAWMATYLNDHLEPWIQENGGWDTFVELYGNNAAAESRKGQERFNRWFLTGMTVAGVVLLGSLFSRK

Bcl-XL [4] = target: T1, Bcl-XL; experiment: Isothermal titration calorimetry (ITC), Bcl-XL; type: binding
Target sequence in this assay (Q07817 whole entry): as above

Bcl-2 = Bcl-2 (Homo sapiens (Human), UniProt P10415); experiment: Fluorescence polarization competitive binding assay (FPA), Bcl-2; conditions: displacement of BH3 peptide
Experimental: (§1) For competitive binding assays, 100 nM GST-BCL-XL ΔTM protein was preincubated with the tested compound at varying concentrations in 47.5 μL PBS (pH=7.4) in 96-well black plates at room temperature for 10 min, then 2.5 μL of 100 nM FITC-labeled Bak BH3 peptide was added to produce a final volume of 50 μL. The wild-type and mutant Bak BH3 peptides were included in each assay plate as positive and negative controls, respectively. After 30 min incubation at room temperature, the polarization values in millipolarization units were measured at excitation/emission wavelengths of 480/535 nm with a multilabel plate reader (PerkinElmer). IC50 was determined by fitting the experimental data to a sigmoidal dose-response nonlinear regression model (SigmaPlot 10.0.1, Systat Software, Inc., San Jose, Calif., USA). Data reported are mean of three independent experiments±standard error (SE). […] Fluorescence polarization was measured after 10 min.

Bcl-XL [5] = target: T1, Bcl-XL; experiment: Fluorescence polarization competitive binding assay (FPA), Bcl-XL; conditions: displacement of BH3 peptide
Target sequence in this assay (Q07817 1-211): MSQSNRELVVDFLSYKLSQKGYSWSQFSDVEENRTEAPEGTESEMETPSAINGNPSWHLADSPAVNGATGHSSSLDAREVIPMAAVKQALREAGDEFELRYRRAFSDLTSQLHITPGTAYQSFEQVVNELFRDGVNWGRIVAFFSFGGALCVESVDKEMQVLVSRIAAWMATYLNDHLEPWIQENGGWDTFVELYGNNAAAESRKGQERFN
Experimental: as §1

PPC-1 xenograft tumors = experiment: PPC-1 tumor xenograft study in nude mice
Experimental: Female 6-week-old nude mice were purchased from Charles River Laboratories. 5×10^6 PCC-1 cells suspended in 0.2 ml PBS were injected subcutaneously into a flank region of each nude mouse. Tumor bearing mice were size matched (200 mm^3) into treatment and control group, ear tagged, and monitored individually. Tumor volume was measured two to three times weekly by digital calipers (volume=length×width^2/2). All studies use 6 mice per group. […] Control mice received saline. The injections were given three times in first week, twice in second week and once in third week and a total of six injections were administered during the experiment. When all tumors of the control group exceed 2000 mm^3 in volume, the animal experiment was terminated. Tumor growth inhibition ratios (T/C %) were calculated by dividing the average tumor volume in the treatment group by the average tumor volume in the control group.

Mcl-1 = Mcl-1 (Homo sapiens (Human), UniProt Q07820); experiment: Fluorescence polarization competitive binding assay (FPA), Mcl-1; conditions: displacement of BH3 peptide
Experimental: as §1

[6] = administered orally (6a); cited from earlier work
Bfl-1 = Bfl-1 (Homo sapiens (Human), UniProt Q16548); experiment: Fluorescence polarization competitive binding assay (FPA), Bfl-1; conditions: displacement of BH3 peptide
Experimental: as §1

[7] = In vitro plasma stability; conditions: for Plasma Stability (T = 40 mins): Table 4
Source text: (§2) To test the pharmacological properties of the compounds of Formula I, the in vitro plasma stability, microsomal stability, and cell membrane permeability may be determined.

primary CLL cells = experiment: Annexin-V apoptosis assay, primary CLL cells; type: cell-based, human
Experimental: The apoptotic activity of the compounds against RS4;11, BP3 and primary CLL cells was assessed by staining with Annexin V-FITC and propidium iodide (PI). Cells were cultured in RPMI 1640 medium (Mediatech Inc., Herndon, Va. 20171) containing 10% fetal bovine serum (Mediatech Inc., Herndon, Va. 20171) and Penicillin/Streptomycin (Mediatech Inc., Herndon, Va. 20171). […] The percentage of viable cells was determined by FITC-Annexin V- and propidium iodide (PI)-labeling, using an Apoptosis Detection kit (BioVision Inc.), and analyzing stained cells by flow cytometry (FACSort; Bectin-Dickinson, Inc.; Mountain View, Calif.). Cells that were annexin-V-negative and PI-negative were considered viable.

[8] = In vitro microsomal stability; conditions: Table 4
Source text: as §2

H460 cell line = conditions: pan-Bcl-2 family inhibitor from literature; cited from earlier work

Chain of Bcl-2 (P10415 whole entry): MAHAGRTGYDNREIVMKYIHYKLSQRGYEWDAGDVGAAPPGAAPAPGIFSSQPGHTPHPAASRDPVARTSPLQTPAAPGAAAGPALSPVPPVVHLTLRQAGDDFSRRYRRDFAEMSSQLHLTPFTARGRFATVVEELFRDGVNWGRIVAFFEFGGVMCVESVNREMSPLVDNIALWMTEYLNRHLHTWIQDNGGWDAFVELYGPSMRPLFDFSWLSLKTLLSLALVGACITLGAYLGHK
Chain of Mcl-1 (Q07820 whole entry): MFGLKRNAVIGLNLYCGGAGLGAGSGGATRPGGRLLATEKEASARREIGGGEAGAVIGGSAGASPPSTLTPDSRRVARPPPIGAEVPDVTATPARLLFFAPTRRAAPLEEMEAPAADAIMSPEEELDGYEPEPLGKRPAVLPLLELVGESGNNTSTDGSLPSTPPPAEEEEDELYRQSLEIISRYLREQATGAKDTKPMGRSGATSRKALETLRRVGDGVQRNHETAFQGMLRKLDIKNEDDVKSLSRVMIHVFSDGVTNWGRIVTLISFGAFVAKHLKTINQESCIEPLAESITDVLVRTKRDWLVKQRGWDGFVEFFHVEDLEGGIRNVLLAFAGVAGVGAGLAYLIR
Chain of Bfl-1 (Q16548 whole entry): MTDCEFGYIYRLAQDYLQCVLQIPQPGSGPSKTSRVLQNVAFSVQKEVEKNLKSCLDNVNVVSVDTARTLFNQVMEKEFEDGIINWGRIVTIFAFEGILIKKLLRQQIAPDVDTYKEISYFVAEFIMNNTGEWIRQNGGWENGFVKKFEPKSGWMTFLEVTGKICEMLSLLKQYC

| Structure (SMILES) | 1D-1H NMR (Bcl-XL [3]) | Kd (Bcl-XL [4]) | IC50 (Bcl-2) | IC50 (Bcl-XL [5]) | IC50 (Mcl-1) | IC50 (Bfl-1) | Plasma Stability (T = 40 mins) [7] | other results |
| --- | --- | --- | --- | --- | --- | --- | --- | --- |
| Cc1cc2c(C(C)C)c(O)c(O)cc2c(O)c1-c1c(C)cc2c(C(C)C)c(O)c(O)cc2c1O [Apogossypol] | – | – | – | – | – | – | – | EC50 (EC50 values of FIG. 3(B)): 2800 nM; degraded after 1 hour incubation in rat microsomal preparations: 36%; degraded after 60 days at room temperature [1]: ~80%; degraded after 1 hour incubation in rat plasma [2]: 47% |
| CC1=C(C2=C(C)C(=O)c3c(cc(O)c(O)c3C(C)C)C2=O)C(=O)c2cc(O)c(O)c(C(C)C)c2C1=O [Compound 6a, 6,6′,7,7′-tetrahydroxy-5,5′-diisopropyl-3,3′-dimethyl-2,2′-binaphthyl-1,1′,4,4′-tetraone, reference compound] | +++ | 2800 nM | 370 ± 20 nM | 630 ± 20 nM | 540 ± 30 nM | 2170 ± 350 nM | 77% | average body weight losses during the treatment (PPC-1 xenograft tumors; 50 mg/kg i.p.): 9.3%; weight loss in first week (PPC-1 xenograft tumors; 50 mg/kg i.p. three times in first week): ~5%; maximum tolerated dose (MTD) [6]: above 240 mg/kg; degraded after 1 hour incubation in rat plasma ([7]; 1 h, rat plasma (preparations)): 23%; LD50 primary CLL samples (primary CLL cells; comparison of 6c with 6a): > 30 µM; LD50 primary CLL samples (primary CLL cells; two primary CLL samples, one day Annexin-V apoptosis assay): > 30 µM |
| CC1=C(C2=C(C)C(=O)c3c(cc(O)c(O)c3CC(C)C)C2=O)C(=O)c2cc(O)c(O)c(CC(C)C)c2C1=O [Compound 6b, 6,6′,7,7′-tetrahydroxy-5,5′-diisobutyl-3,3′-dimethyl-2,2′-binaphthyl-1,1′,4,4′-tetraone] | +++ | 1500 ± 800 nM | 250 ± 20 nM | 550 ± 60 nM | 470 ± 30 nM | 1410 ± 110 nM | 98% | Microsomal Stability (T = 40 mins) [8]: 69% |
| COC1=CC(c2cc3ccccc3[nH]2)=N/C1=C\c1[nH]c(C)cc1C [GX15-070] | – | – | – | – | – | – | – | IC50 (H460 cell line): 3850 nM |
